# Values quoted from earlier work in US20230139888A1, “MOISTURIZING PEEL CREAM FOR ENHANCING SKIN” (L'OREAL, priority 2021, published 2023).
# Conditions: acute oral toxicity, mutagenicity, skin irritation, skin sensitization, phototoxicity
smiles,measurement,value
CC(c1ccccc1)c1ccc(O)cc1O (stereo not shown) [Phenylethyl resorcinol],adverse effects in basic toxicological tests,has not shown adverse effects
